Target: T1, Cathepsin B-like cysteine protease (Trypanosoma brucei, UniProt Q6R7Z5)
T1 sequence (Q6R7Z5 whole entry): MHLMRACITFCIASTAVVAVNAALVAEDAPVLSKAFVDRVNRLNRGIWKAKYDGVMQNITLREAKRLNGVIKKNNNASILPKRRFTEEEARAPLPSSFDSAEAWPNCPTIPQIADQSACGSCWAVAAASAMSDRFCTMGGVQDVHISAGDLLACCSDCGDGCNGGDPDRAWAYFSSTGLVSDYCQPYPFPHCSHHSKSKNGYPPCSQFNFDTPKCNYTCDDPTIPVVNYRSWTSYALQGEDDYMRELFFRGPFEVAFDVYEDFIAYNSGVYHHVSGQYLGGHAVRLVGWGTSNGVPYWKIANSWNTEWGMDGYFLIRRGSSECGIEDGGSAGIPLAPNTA
Experiment: Inhibition of Trypanosoma brucei CatB

SMILES	IC50 [µM]
Cn1c2c3ccc(Cl)cc3nc-2c(NC2CCNCC2)c2ccc(Cl)cc21	43
Cn1c2c3ccccc3nc-2c(NC2CCNCC2)c2ccc(Cl)cc21	59
Cn1c2c3ccccc3nc-2c(Nc2cccnc2)c2ccccc21	59
CCN(CC)Cc1ccc(Nc2c3nc4ccccc4c-3n(C)c3ccccc23)cc1O	59
Cn1c2c3ccccc3nc-2c(NC2CCN(Cc3ccccc3O)CC2)c2ccccc21	26
CC(C)CN1CCC(Nc2c3nc4ccccc4c-3n(C)c3ccccc23)CC1	26
CCN(CC)CCCC(C)Nc1c2nc3ccccc3c-2n(C)c2ccccc12 (stereo not given)	> 100
CC(C)NCCCNc1c2nc3ccccc3c-2n(C)c2ccccc12	62
CN(C)CC(C)(C)CNc1c2nc3ccccc3c-2n(C)c2ccccc12	62
CC(CN(C)C)Nc1c2nc3ccccc3c-2n(C)c2ccccc12 (stereo not given)	> 100

From BindingDB's records for doi:10.1016/j.bmcl.2012.07.104 (University of Lisbon, 2012)
